The target of one data set is Akt (Homo sapiens, UniProt P31749). Briefly: Enzyme-based Akt kinase activity assay (Kinome Diversity Screen, ELISA quantitation). In kind it is biochemical. The note with it: crosstide substrate. The protocol:
In briefly, Akt activity was assayed using human recombinant insect Sf21 cells for Akt kinase source and crosstide peptide ([…], 15 μg/mL) as a substrate. Cell lysate was incubated with kinase assay buffer (50 mM HEPES pH 7.4, 10 mM MgCl2, 0.2 mM Na3VO4, and 1 mM DTT) for 60 min at 25°C, and analyzed by ELISA quantitation of Crosstide-P.

In data set [1] the test system is HDAC enzyme activity in BJAB cells. As to the kind of experiment: Cell-based HDAC fluorescence activity assay, BJAB. The note with it: Homo sapiens, 24 h, read-out: IC50 (HDAC enzyme activity).
Description: (§4) After the incubation, the lysine developer in this kit was added and the mixture was incubated for another 30 min at 37°C.
Data set [2] has as its system Ramos cells. As to the kind of experiment: MTT cell viability assay, Ramos B-cell lymphoma cells. In kind it is cell-based. The note with it: Homo sapiens, 24 h, mean ± SEM, read-out: IC50 (growth inhibition). On the procedure: (§1) Two fast-growing malignant B cell lymphoma (Burkitt lymphoma) cell lines and human umbilical vein endothelial cells (HUVEC) were used. Ramos and HUVEC cells were purchased from American Type Culture Collection (Manassas, VA, USA) and BJAB cells were a kind gift from Professor Ping-Ning Hsu (National Taiwan University Hospital and National Taiwan University, College of Medicine, Taipei, Taiwan). […] All cells were maintained in humidified air containing 5% CO2 at 37°C. Cell density was maintained between 1×10^5 and 1×10^6 cell/ml and passaged every 2 to 3 days.
(§2) Cell viability was assessed by MTT assay. […] After the treatment, 100 μl of 0.5 mg/ml 3-(4,5-Dimethylthiazol-2-yl)-2,5-diphenyl-tetrazolium bromide (MTT) were added to each well and incubated at 37°C to stained cells forming an insoluble blue formazan product. After 1 h incubation, 100 μl of extraction reagent (0.1M sodium acetate buffer or DMSO) were added to each well and mix thoroughly to lyse cells. The plates were then measured at 550 nm using an enzyme-linked immunosorbent assay (ELISA) reader (Packard, Meriden, CT, USA).
(In general: Tetrazolium assays rely on reduction of a dye to a coloured formazan, in cell work by metabolically active cells.)

Data set [3] relates to HDAC enzyme activity in Ramos cells. Briefly: Cell-based HDAC fluorescence activity assay, Ramos. The note with it: Homo sapiens, 24 h, read-out: IC50 (HDAC enzyme activity).
Description: as §4
A short description of data set [4]: Body weight of BJAB tumor bearing mice. In kind it is in vivo. The note with it: nude mice, 50-200 mg/kg, po, qd, 31 days. On the procedure:
The mice were carefully maintained and all animal procedures were in accordance with the Institutional Animal Care and Use Committee procedures and guidelines. […] Tumor size was measured twice weekly and calculated from V = 0.5 lw^2, where w = width (w) and l = length (l). At the end of study, tumors were carefully removed and frozen in liquid nitrogen for subsequent western analysis.

In data set [5] the test system is Ramos cells. Briefly: Ramos engraftment survival model in NOD/SCID mice. In kind it is in vivo. The note with it: daily oral gavage, MPT0E028 100 mg/kg, SAHA 200 mg/kg. From the text: (§3) The mice were carefully maintained and all animal procedures were in accordance with the Institutional Animal Care and Use Committee procedures and guidelines. All animal experiments followed ethical standards, and protocols has been reviewed and approved by Animal Use and Management Committee of National Taiwan University (IACUC Approval No: 20100225).
In Ramos engrafment model, human B-cell lymphoma Ramos cells were resuspended at 10^7 cells/ml in culture medium at room temperature, and 2×10^6 cells were inoculated into male NOD/SCID mice via tail vein. Treatment began 1 week after engrafment. […] Survival rate was used as end point for this study.

Another data set has as its system HDAC1, 2, 6, and 8. The note with it: range over the four isoforms; cited from earlier work.
A further data set deals with HUVEC cells. As to the kind of experiment: MTT cell viability assay, normal HUVEC cells. In kind it is cell-based. The note with it: Homo sapiens, 24 h, read-out: IC50 (cell viability, toxicity). On the procedure:
as §1, §2

The subject of another data set is BJAB cells. Briefly: MTT cell viability assay, BJAB B-cell lymphoma cells. In kind it is cell-based. The note with it: Homo sapiens, 24 h, mean ± SEM, read-out: IC50 (growth inhibition). On the procedure:
as §1, §2

The next data set concerns HDAC4. The note with it: cited from earlier work.
The next data set relates to BJAB tumors. Briefly: BJAB xenograft tumor growth model in nude mice. In kind it is in vivo. The note with it: po, qd, 31 days. The protocol: as §3
In BJAB xenograft model, the male nude mice were injected subcutaneously with the same volume of BD Matrigel Matrix HC (BD bioscience, catalog 354248) and BJAB cells (2×10^7 cell/mouse) into the flank of each animal. […] Tumor size was measured twice weekly and calculated from V = 0.5 lw^2, where w = width (w) and l = length (l). At the end of study, tumors were carefully removed and frozen in liquid nitrogen for subsequent western analysis.

For data set [6], the system named is p-Akt (S473) in BJAB cells. As to the kind of experiment: Cell-based ELISA for p-Akt (S473), BJAB. The note with it: Homo sapiens, 24 h, mean ± SEM, read-out: IC50 (Akt dephosphorylation, p-Akt S473). On the procedure:
After the treatment, cells were lysed with ice-cold lysis buffer mentioned above and equivalent aliquots of protein were subjected to a PathScan phospho-Akt1 (Ser473) sandwich ELISA kit (Cell Signaling Technology) following manufacture's instruction. In briefly, whole cell lysate was first half-diluted with sample diluent and added 100 μl into the well incubating overnight at 4°C. After the reaction, wells were washed 4 times with 200 μl wash buffer and then added 100 μl of Akt1 mouse detection antibody incubating 1 h at 37°C. Washed 4 times again and then added 100 μl of anti-mouse IgG HRP-linked antibody incubating 30 min at 37°C. After incubation, washed the well once again and then added 100 μl TMB substrate for color production and finally added 100 μl STOP solution. The results were measured by spectrophotometer at wavelength 450 nm.

Structures are written as SMILES.

Sequence of Akt (P31749 whole entry): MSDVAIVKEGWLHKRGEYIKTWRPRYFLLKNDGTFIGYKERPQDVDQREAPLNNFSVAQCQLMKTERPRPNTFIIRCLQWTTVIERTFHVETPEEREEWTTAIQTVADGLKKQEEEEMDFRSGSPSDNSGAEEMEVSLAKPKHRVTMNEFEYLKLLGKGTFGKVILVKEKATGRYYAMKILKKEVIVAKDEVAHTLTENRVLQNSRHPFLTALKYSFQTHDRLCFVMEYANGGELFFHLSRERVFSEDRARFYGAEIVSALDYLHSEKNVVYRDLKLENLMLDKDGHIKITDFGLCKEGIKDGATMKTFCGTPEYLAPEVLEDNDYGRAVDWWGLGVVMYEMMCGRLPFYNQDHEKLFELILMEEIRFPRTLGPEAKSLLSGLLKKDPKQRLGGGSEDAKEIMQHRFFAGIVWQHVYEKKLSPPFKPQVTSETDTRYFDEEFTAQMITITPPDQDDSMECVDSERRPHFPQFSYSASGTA

With `O=C(C=Cc1ccc2c(c1)CCN2S(=O)(=O)c1ccccc1)NO` [MPT0E028, 3-(1-Benzenesulfonyl-2,3-dihydro-1H-indol-5-yl)-N-hydroxy-acrylamide], the IC50 (as a rule, the midpoint of a concentration-inhibition curve) against Akt is 5.78 µM; in [1], 4.54 ± 1.2 µM; with Ramos cells [2], 0.65 ± 0.1 µM; in data set [3] it was 2.88 ± 1.9 µM; in the data set with HDAC1, 2, 6, and 8, 0.0295 to 2.53 µM; in the data set with HUVEC cells, above 30 µM. The half-maximal inhibitory concentration (IC50) came to 1.45 ± 0.5 µM with BJAB cells and 5.9 ± 1.6 µM in data set [6]. In addition, the “Body weight difference between groups” value in [4] is “no significant difference in body weight”. In the data set on Ramos cells [5], the “Survival rate compared with control group” value is given as “significantly prolonged”. Besides, the “effect upon HDAC4” value with HDAC4 is “no effect”. The TGI (in general, how far tumour growth fell short of that in controls) is 20.8% with BJAB tumors (100 mg/kg) and 40.4% with BJAB tumors (200 mg/kg).
As to `O=C(CCCCCCC(=O)Nc1ccccc1)NO` [SAHA, reference compound], in the data set with Ramos cells [5], the “Survival rate compared with control group” value is on record as “no significant efficacy”. The molecule also displayed a TGI in the data set on BJAB tumors (200 mg/kg) of 17.9%. Also, in data set [6], the IC50 stood at 32.9 ± 11.3 µM.

The values are drawn from paper PMC4467128 (Oncotarget, 2014).
